Assay results reported in US20180116993A1, “MODULATORS OF FARNESOID X RECEPTOR AND METHODS FOR THE USE THEREOF” (XIAMEN UNIVERSITY, priority 2015, published 2018).
Read-outs that look alike come from different tables or passages of the source.

Legend:
[1] = tested on: human breast cancer MCF7 cells; test: MTT cell viability assay, MCF-7; type: cell-based; conditions: 48 h, read-out: Cell viability as a percentage of the cells treated with DMSO, MCF-7
How it was run: (§1)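 Viability, reported relative to DMSO-treated cells (%), comes from an MTT colorimetric assay after exposure to 20 uM or 40 uM compound. Cells are maintained in DMEM containing 10% fetal bovine serum.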

[2] = tested on: human hepatoma HepG2 cells; test: MTT cell viability assay, HepG2; type: cell-based; conditions: 48 h, read-out: Cell viability as a percentage of the cells treated with DMSO, HepG2
How it was run: as §1

[3] = tested on: RA-resistant human colon cancer HCT116 cells; test: MTT cell viability assay, HCT116; type: cell-based; conditions: 48 h, read-out: Cell viability as a percentage of the cells treated with DMSO, HCT116; for viability at 20 µM: HCT-116, 20 uM; for viability at 40 µM: HCT-116, 40 uM
How it was run: as §1

[4] = target: T1, FXR ligand binding domain (LBD) (Homo sapiens, UniProt Q96RI1); test: AlphaScreen assay: FXR LBD recruitment of coregulator peptide motifs (SRC2-3, SRC1-2); type: biochemical
T1 construct: made in house
T1 sequence (Q96RI1 262-486 limits assumed): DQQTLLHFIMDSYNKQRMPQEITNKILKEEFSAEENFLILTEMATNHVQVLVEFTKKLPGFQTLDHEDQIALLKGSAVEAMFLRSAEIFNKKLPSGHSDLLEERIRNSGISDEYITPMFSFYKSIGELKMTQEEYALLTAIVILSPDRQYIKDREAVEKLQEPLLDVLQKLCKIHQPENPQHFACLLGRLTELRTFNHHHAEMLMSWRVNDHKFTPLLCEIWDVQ

[5] = tested on: human cervical carcinoma Hela cells; test: MTT cell viability assay, Hela; type: cell-based; conditions: 48 h, read-out: Cell viability as a percentage of the cells treated with DMSO, Hela
How it was run: as §1

full-length FXR = target: T2, full-length FXR (Homo sapiens, UniProt Q96RI1); test: Cell-based FXR transactivation, EcRE luciferase reporter in COS-7 cells; conditions: for fold induction at 5 µM / Cell-based FXR transactivation Fold changes by 5 μM compound: 5 μM compound; for fold induction at 5 µM / EC50: EcRE luciferase reporter; for Cell-based FXR transactivation Fold changes by 5 μM compound: positive: induction, minus: repression
T2 construct: The cells were co-transfected with plasmids encoding full-length FXR and the cognate luciferase reporter EcRE-Luc; expressed in transfected cells; host or cells: COS-7
T2 sequence (Q96RI1 1-486): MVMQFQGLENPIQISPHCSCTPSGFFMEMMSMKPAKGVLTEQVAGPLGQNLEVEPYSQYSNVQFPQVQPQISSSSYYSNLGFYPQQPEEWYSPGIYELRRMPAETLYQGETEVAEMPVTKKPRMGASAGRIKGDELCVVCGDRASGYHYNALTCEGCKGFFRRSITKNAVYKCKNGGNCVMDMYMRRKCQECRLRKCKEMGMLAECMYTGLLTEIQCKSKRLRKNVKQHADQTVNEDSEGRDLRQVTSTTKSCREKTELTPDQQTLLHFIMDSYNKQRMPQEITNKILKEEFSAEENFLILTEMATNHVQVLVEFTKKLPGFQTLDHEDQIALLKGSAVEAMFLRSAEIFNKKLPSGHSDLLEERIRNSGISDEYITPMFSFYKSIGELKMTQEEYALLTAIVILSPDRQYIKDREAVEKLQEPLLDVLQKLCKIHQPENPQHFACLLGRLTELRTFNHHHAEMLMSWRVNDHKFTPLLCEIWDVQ
How it was run: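 COS-7 cells were transiently cotransfected with full-length FXR, EcRE-Luc reporter and a renilla control. Ligands were added 5 h after transfection, and cells were harvested 24 h later. Firefly luciferase was normalized to renilla in a dual-luciferase read-out.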

[6] = tested on: human colorectal adenocarcinoma HCT15 cells; test: MTT cell viability assay, HCT15; type: cell-based; conditions: 48 h, read-out: Cell viability as a percentage of the cells treated with DMSO, HCT15; for viability at 20 µM: HCT-15, 20 uM; for viability at 40 µM: HCT-15, 40 uM
How it was run: as §1

[7] = SRC1-2 peptide, Table 1, read-out: EC50 (μM) of FXR binding by AlphaScreen assay recruit SRC1-2
[8] = SRC2-3 peptide, Table 1, read-out: EC50 (μM) of FXR binding by AlphaScreen assay recruit SRC2-3
[9] = SRC1-2 peptide, Table 2, read-out: EC50 (μM) of FXR binding by AlphaScreen assay recruit SRC1-2
[10] = SRC2-3 peptide, Table 2, read-out: EC50 (μM) of FXR binding by AlphaScreen assay recruit SRC2-3

Compound | EC50 [4, 7] [µM] | EC50 [4, 8] [µM] | fold induction at 5 µM (full-length FXR; Table 1) | EC50 (full-length FXR; Table 1) [nM] | EC50 [4, 9] [µM] | EC50 [4, 10] [µM] | Cell-based FXR transactivation Fold changes by 5 μM compound (full-length FXR; Table 2) | EC50 (full-length FXR; Table 2) [nM] | viability at 20 µM [1] [%] | viability at 40 µM [1] [%] | viability at 20 µM [2] [%] | viability at 40 µM [2] [%] | viability at 20 µM [3] [%] | viability at 40 µM [3] [%] | viability at 20 µM [5] [%] | viability at 40 µM [5] [%] | viability at 20 µM [6] [%] | viability at 40 µM [6] [%]
C/C1=C\CCC(C)(O)/C=C/C(C(C)C)C(OC(=O)c2ccc(O)cc2)C1 (stereo not shown) [Feroline] | < 1 | < 1 | > 10 | < 1000 |  |  |  |  | 92 ± 13 | 86 ± 12 | 84 | 65 ± 3 | 100 ± 5 | 80 ± 2 | 83 | 67 ± 3 | 100 ± 2 | 76 ± 6
COc1cc(C(=O)OC2C/C(C)=C/CC/C(C)=C/[C@@H](O)[C@H]2C(C)C)ccc1O (stereo partly shown) [Tschimganidine] | < 1 | < 1 | > 10 | < 1000 |  |  |  |  | 100 ± 4 | 85 | 94 | 48 ± 4 | 95 ± 4 | 40 ± 7 | 96 | 30 ± 5 | 85 ± 9 | 60 ± 10
COc1cc(C(=O)O[C@H]2C[C@H]3CC[C@]2(C)C3(C)C)ccc1O [Tschimganine] | < 1 | < 1 | > 10 | < 1000 |  |  |  |  | 100 ± 3 | 99 ± 3 | 100 ± 1 | 97 ± 3 | 97 ± 1 | 90 ± 4 | 98 ± 2 | 97 ± 4 | 100 ± 1 | 80 ± 9
CC1(C)[C@@H]2CC[C@@]1(C)[C@@H](OC(=O)c1ccc(O)cc1)C2 [Tschimgine] | < 1 | < 1 | > 10 | < 1000 |  |  |  |  | 93 | 32 | 97 | 30 ± 3 | 93 ± 4 | 25 ± 5 | 94 | 31 ± 4 | 97 ± 6 | 31 ± 2

Further lines, with some results ahead:

EC50 [4, 7] [µM] | EC50 [4, 8] [µM] | fold induction at 5 µM (full-length FXR; Table 1) | EC50 (full-length FXR; Table 1) [nM] | EC50 [4, 9] [µM] | EC50 [4, 10] [µM] | Cell-based FXR transactivation Fold changes by 5 μM compound (full-length FXR; Table 2) | EC50 (full-length FXR; Table 2) [nM] | Compound | viability at 20 µM [1] [%] | viability at 40 µM [1] [%] | viability at 20 µM [2] [%] | viability at 40 µM [2] [%] | viability at 20 µM [3] [%] | viability at 40 µM [3] [%] | viability at 20 µM [5] [%] | viability at 40 µM [5] [%] | viability at 20 µM [6] [%] | viability at 40 µM [6] [%]
 |  |  |  | 1 to 10 | 1 to 10 | 5 | 1000 to 10000 | CC1(C)C2CCC1(C)C(OC(=O)c1ccc(F)cc1)C2 (stereo not shown) [XD-0, 1,7,7-trimethyl-bicyclo[2.2.1]-heptan-2-yl 4-fluorobenzoate] | 100 ± 2 | 85 | 81 ± 2 | 76 ± 7 | 95 ± 4 | 62 ± 6 | 90 | 71 ± 3 | 81 ± 4 | 56 ± 2
 |  |  |  | < 1 | < 1 | >10 | < 1000 | Cc1cc(C(=O)OC2CC3CCC2(C)C3(C)C)ccc1N (stereo not shown) [XD-4, 1,7,7-trimethyl-bicyclo[2.2.1]-heptan-2-yl 4-amino-3-methylbenzoate] | 100 ± 9 | 23 | 90 ± 5 | 42 ± 1 | 81 ± 2 | 27 ± 1 | 95 ± 4 | 36 ± 2 | 79 ± 2 | 41 ± 3
 |  |  |  | < 1 | < 1 | >10 | < 1000 | CC1(C)C2CCC1(C)C(OC(=O)c1ccc(N)cc1)C2 (stereo not shown) [XD-5, 1,7,7-trimethyl-bicyclo[2.2.1]-heptan-2-yl 4-aminobenzoate] | 100 ± 3 | 20 | 95 ± 1 | 40 ± 1 | 88 ± 2 | 30 ± 3 | 93 ± 4 | 46 ± 3 | 80 ± 4 | 30 ± 4
 |  |  |  | 1 to 10 | 1 to 10 | >10 | 1000 to 10000 | CC1(C)C2CCC1(C)C(OC(=O)c1ccncc1)C2 (stereo not shown) [XD-6, 1,7,7-trimethyl-bicyclo[2.2.1]-heptan-2-yl isonicotinate] | 100 ± 8 | 61 | 99 ± 1 | 70 ± 2 | 61 ± 1 | 45 ± 2 | 100 ± 1 | 76 ± 1 | 57 ± 2 | 42 ± 3
 |  |  |  | 1 to 10 | 1 to 10 | 4 | 1000 to 10000 | CC1(C)C2CCC1(C)C(OC(=O)c1ccc(=O)[nH]c1)C2 (stereo not shown) [XD-8, 1,7,7-trimethyl-bicyclo[2.2.1]-heptan-2-yl 6-oxo-1,6-dihydropyridine-3-carboxylate] | 94 ± 10 | 75 | 90 | 64 ± 3 | 92 ± 7 | 60 ± 3 | 97 | 71 ± 3 | 78 ± 4 | 60 ± 4
 |  |  |  | 1 to 10 | 1 to 10 | 4 | 1000 to 10000 | CC1(C)C2CCC1(C)C(OC(=O)c1ccc(=O)oc1)C2 (stereo not shown) [XD-9, 1,7,7-trimethyl-bicyclo[2.2.1]-heptan-2-yl 6-oxo-6H-pyran-3-carboxylate] | 72 ± 6 | 31 | 90 ± 3 | 64 ± 3 | 58 ± 2 | 25 ± 2 | 80 ± 3 | 59 ± 5 | 49 ± 2 | 42 ± 3
< 1 | < 1 | 8 | < 1000 |  |  |  |  | O=C(OC1CCCCCCC1)c1ccc(O)cc1 [XD-10, cyclooctyl 4-hydroxybenzoate] | 93 ± 7 | 28 | 90 ± 3 | 35 ± 1 | 92 ± 6 | 30 ± 4 | 90 ± 4 | 40 ± 3 | 60 ± 4 | 41 ± 4
 |  |  |  | 1 to 10 | 1 to 10 | 4 | 1000 to 10000 | O=C(OC1CCCCCCCCCCC1)c1ccc(O)cc1 [XD-11, cyclododecyl 4-hydroxybenzoate] | 100 ± 7 | 100 ± 2 | 100 ± 1 | 97 ± 1 | 92 ± 2 | 70 ± 7 | 100 ± 3 | 100 ± 2 | 89 ± 2 | 78 ± 3
 |  |  |  | < 1 | < 1 | 5 | < 1000 | Nc1ccc(C(=O)OC2CCCCCCC2)cc1 [XD-16, cyclooctyl 4-aminobenzoate] |  |  |  |  |  |  |  |  |  | 
